Marks after values point to notes of the source that are not given here. Residues, ends and D or L forms follow the SMILES beside them.
Assay: Serum biochemistry of rats at the end of treatment
Assay type: in vivo, Sprague-Dawley rats
Conditions: median (IQR)

CC[C@H](C)[C@@H]1NC(=O)[C@@H]2CSSC[C@H](NC(=O)[C@H](CCCNC(=N)N)NC(=O)[C@@H]3CSSC[C@H](NC1=O)C(=O)N[C@@H]([C@@H](C)O)C(=O)N[C@@H](CCCNC(=N)N)C(=O)NCC(=O)N[C@@H](Cc1ccccc1)C(=O)N3)C(=O)N[C@@H](CC(C)C)C(=O)N[C@H]1CSSC[C@H](NC(=O)[C@H](C(C)C)NC(=O)CNC(=O)[C@H](CCCNC(=N)N)NC(=O)[C@H](CCCNC(=N)N)NC1=O)C(=O)N[C@@H](CCCNC(=N)N)C(=O)N2 [RTD-1, Rhesus theta (θ) defensin-1] (HELM PEPTIDE1{G.F.C.R.C.L.C.R.R.G.V.C.R.C.I.C.T.R}$PEPTIDE1,PEPTIDE1,3:R3-16:R3|PEPTIDE1,PEPTIDE1,5:R3-14:R3|PEPTIDE1,PEPTIDE1,7:R3-12:R3|PEPTIDE1,PEPTIDE1,1:R1-18:R2$$$V2.0)
CK (female, 20 mg/kg, day 2): 1,506.0 (2,604.5) U/L
Calcium (female, 20 mg/kg, day 2): 10.3 (0.6)^c^,^d mg/dL
Chloride (female, 20 mg/kg, day 2): 104.0 (3.0) mmol/L
Cholesterol (female, 20 mg/kg, day 2): 52.0 (6.5) mg/dL
Creatinine (female, 20 mg/kg, day 2): 0.5 (0.2)^c^,^d^,^e mg/dL
GGT (female, 20 mg/kg, day 2): 4.0 (5.5)^c^,^d^,^e U/L
Globulin (female, 20 mg/kg, day 2): 1.0 (0.3)^c^,^d^,^e g/dL
Glucose (female, 20 mg/kg, day 2): 218.0 (70.0)^c^,^d^,^e mg/dL
Phos (female, 20 mg/kg, day 2): 9.3 (5.0) mg/dL
Potassium (female, 20 mg/kg, day 2): 4.9 (0.7) mmol/L
Sodium (female, 20 mg/kg, day 2): 141.0 (2.5)^c mmol/L
T-Bil (female, 20 mg/kg, day 2): 0.0 (0.0) mg/dL
TP (female, 20 mg/kg, day 2): 3.9 (0.8)^c^,^d^,^e g/dL
Triglycerides (female, 20 mg/kg, day 2): 106.0 (36.5)^c^,^d^,^e mg/dL
Urea N (female, 20 mg/kg, day 2): 20.0 (3.0) mg/dL
A/G (male, 5 mg/kg/day): 2.2 (0.3)
ALP (male, 5 mg/kg/day): 212.0 (40.3) U/L
ALT (male, 5 mg/kg/day): 40.0 (9.8) U/L
AST (male, 5 mg/kg/day): 133.0 (34.0) U/L
Albumin (male, 5 mg/kg/day): 3.8 (0.0) g/dL
CK (male, 5 mg/kg/day): 765.5 (395.5) U/L
Calcium (male, 5 mg/kg/day): 9.8 (0.4) mg/dL
Chloride (male, 5 mg/kg/day): 104.5 (1.8) mmol/L
Cholesterol (male, 5 mg/kg/day): 70.5 (10.3) mg/dL
Creatinine (male, 5 mg/kg/day): 0.2 (0.1) mg/dL
GGT (male, 5 mg/kg/day): 0.0 (0.0) U/L
Globulin (male, 5 mg/kg/day): 1.7 (0.2) g/dL
Glucose (male, 5 mg/kg/day): 72.5 (16.3) mg/dL
Phos (male, 5 mg/kg/day): 8.5 (0.5) mg/dL
Potassium (male, 5 mg/kg/day): 5.2 (0.2) mmol/L
Sodium (male, 5 mg/kg/day): 144.0 (1.8) mmol/L
T-Bil (male, 5 mg/kg/day): 0.0 (0.0) mg/dL
TP (male, 5 mg/kg/day): 5.5 (0.2) g/dL
Triglycerides (male, 5 mg/kg/day): 37.0 (21.5) mg/dL
Urea N (male, 5 mg/kg/day): 16.5 (4.0) mg/dL
A/G (male, 10 mg/kg/day): 2.4 (0.2)
ALP (male, 10 mg/kg/day): 212.5 (51.5) U/L
ALT (male, 10 mg/kg/day): 32.5 (4.5) U/L
AST (male, 10 mg/kg/day): 113.5 (16.8) U/L
Albumin (male, 10 mg/kg/day): 3.7 (0.2) g/dL
CK (male, 10 mg/kg/day): 612.5 (254.8) U/L
Calcium (male, 10 mg/kg/day): 9.7 (0.2) mg/dL
Chloride (male, 10 mg/kg/day): 105.0 (1.0) mmol/L
Cholesterol (male, 10 mg/kg/day): 66.0 (14.3) mg/dL
Creatinine (male, 10 mg/kg/day): 0.3 (0.1) mg/dL
GGT (male, 10 mg/kg/day): 0.0 (0.0) U/L
Globulin (male, 10 mg/kg/day): 1.6 (0.2) g/dL
Glucose (male, 10 mg/kg/day): 83.0 (6.8) mg/dL
Phos (male, 10 mg/kg/day): 8.6 (1.0) mg/dL
Potassium (male, 10 mg/kg/day): 5.1 (0.3) mmol/L
Sodium (male, 10 mg/kg/day): 144.0 (0.0) mmol/L
T-Bil (male, 10 mg/kg/day): 0.0 (0.0) mg/dL
TP (male, 10 mg/kg/day): 5.4 (0.3) g/dL
Triglycerides (male, 10 mg/kg/day): 29.0 (5.3) mg/dL
Urea N (male, 10 mg/kg/day): 19.0 (3.5) mg/dL
A/G (male, 20 mg/kg, day 2): 2.7 (0.1)^c^,^d^,^e
ALP (male, 20 mg/kg, day 2): 232.0 (45.0) U/L
ALT (male, 20 mg/kg, day 2): 74.0 (38.0)^d^,^e U/L
AST (male, 20 mg/kg, day 2): 245.0 (100.0)^d^,^e U/L
Albumin (male, 20 mg/kg, day 2): 2.7 (0.0)^c^,^d^,^e g/dL
CK (male, 20 mg/kg, day 2): 707.0 (615.0) U/L
Calcium (male, 20 mg/kg, day 2): 9.4 (0.5)^d mg/dL
Chloride (male, 20 mg/kg, day 2): 101.0 (1.0)^c^,^d^,^e mmol/L
Cholesterol (male, 20 mg/kg, day 2): 67.0 (7.0) mg/dL
Creatinine (male, 20 mg/kg, day 2): 0.4 (0.1)^c^,^d^,^e mg/dL
GGT (male, 20 mg/kg, day 2): 0.0 (0.0) U/L
Globulin (male, 20 mg/kg, day 2): 1.0 (0.0)^c^,^d^,^e g/dL
Glucose (male, 20 mg/kg, day 2): 175.0 (35.0)^c^,^d^,^e mg/dL
Phos (male, 20 mg/kg, day 2): 9.3 (3.8) mg/dL
Potassium (male, 20 mg/kg, day 2): 5.1 (0.6) mmol/L
Sodium (male, 20 mg/kg, day 2): 140.0 (2.0)^c^,^d^,^e mmol/L
T-Bil (male, 20 mg/kg, day 2): 0.1 (0.2) mg/dL
TP (male, 20 mg/kg, day 2): 3.7 (0.1)^c^,^d^,^e g/dL
Triglycerides (male, 20 mg/kg, day 2): 193.0 (111.0)^c^,^d^,^e mg/dL
Urea N (male, 20 mg/kg, day 2): 28.0 (6.0)^c^,^d^,^e mg/dL

— article PMC8923172 (Antimicrobial Agents and Chemotherapy, 2022)
